In the supplement of paper PMC10307832:

Columns and labels:
Assay in all cases: relative viability (nuclei count vs DMSO), 5 days (fraction); higher = more cells survive
NCI-H838 = test system: NCI-H838
Outline: (§1)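 Nuclei were stained with Hoechst during a one-step fixation (final 0.05% Triton X-100, 1% formaldehyde, 1 ug/ml Hoechst) carried out 5 days after dosing, then counted on 4× images. The cells, lung cancer lines in 1536-well plates, had been dosed by pin tool the day after seeding with one drug alone or a fixed anchor-drug dose plus five library-drug doses (not always all listed) in √10 steps. Relative viability is the nuclei count in treated wells divided by that in vehicle wells, and each value is the median of duplicate plates.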

NCI-H1651 = test system: NCI-H1651
Outline: as §1

RERF-LC-KJ = test system: RERF-LC-KJ
Outline: as §1

SK-MES-1 = test system: SK-MES-1
Outline: as §1

HCC-15 = test system: HCC-15
Outline: as §1

BEN = test system: BEN
Outline: as §1

NCI-H23 = test system: NCI-H23
Outline: as §1

NCI-H520 = test system: NCI-H520
Outline: as §1

H3255 = test system: H3255
Outline: as §1

NCI-H1650 = test system: NCI-H1650
Outline: as §1

NCI-H650 = test system: NCI-H650
Outline: as §1

NCI-H1792 = test system: NCI-H1792
Outline: as §1

NCI-H1993 = test system: NCI-H1993
Outline: as §1

NCI-H1395 = test system: NCI-H1395
Outline: as §1

NCI-H2009 = test system: NCI-H2009
Outline: as §1

NCI-H1755 = test system: NCI-H1755
Outline: as §1

SK-LU-1 = test system: SK-LU-1
Outline: as §1

PC-3 [JPC-3] = test system: PC-3 [JPC-3]
Outline: as §1

A-427 = test system: A-427
Outline: as §1

NCI-H727 = test system: NCI-H727
Outline: as §1

LC-2-ad = test system: LC-2-ad
Outline: as §1

NCI-H2085 = test system: NCI-H2085
Outline: as §1

NCI-H647 = test system: NCI-H647
Outline: as §1

LCLC-97TM1 = test system: LCLC-97TM1
Outline: as §1

NCI-H661 = test system: NCI-H661
Outline: as §1

**Q.** What does the source list for Nc1cccc2c1CN(C1CCC(=O)NC1=O)C2=O (stereo not drawn) [Lenalidomide] + O=C(c1cc(Cc2n[nH]c(=O)c3ccccc23)ccc1F)N1CCN(C(=O)C2CC2)CC1 [Olaparib] (partner 8 µM)?
**A.** relative viability (NCI-H838; first compound 0.253 µM): 0.75; relative viability (NCI-H838; first compound 0.8 µM): 0.774; relative viability (NCI-H838; first compound 2.53 µM): 0.781; relative viability (NCI-H838; first compound 8 µM): 0.79; relative viability (NCI-H1651; first compound 0.253 µM): 0.153; relative viability (NCI-H1651; first compound 0.8 µM): 0.169; relative viability (NCI-H1651; first compound 2.53 µM): 0.219; relative viability (NCI-H1651; first compound 8 µM): 0.194; relative viability (RERF-LC-KJ; first compound 0.253 µM): 0.812; relative viability (RERF-LC-KJ; first compound 0.8 µM): 0.704; relative viability (RERF-LC-KJ; first compound 2.53 µM): 0.884; relative viability (RERF-LC-KJ; first compound 8 µM): 1.05; relative viability (SK-MES-1; first compound 0.253 µM): 0.717; relative viability (SK-MES-1; first compound 0.8 µM): 0.691; relative viability (SK-MES-1; first compound 2.53 µM): 0.715; relative viability (SK-MES-1; first compound 8 µM): 0.806; relative viability (HCC-15; first compound 0.253 µM): 0.686; relative viability (HCC-15; first compound 0.8 µM): 0.728; relative viability (HCC-15; first compound 2.53 µM): 0.819; relative viability (HCC-15; first compound 8 µM): 0.706; relative viability (BEN; first compound 0.253 µM): 1.07; relative viability (BEN; first compound 0.8 µM): 1.2; relative viability (BEN; first compound 2.53 µM): 1.08; relative viability (BEN; first compound 8 µM): 1.08; relative viability (NCI-H23; first compound 0.253 µM): 0.289; relative viability (NCI-H23; first compound 2.53 µM): 0.3; relative viability (NCI-H23; first compound 8 µM): 0.367; relative viability (NCI-H520; first compound 0.253 µM): 0.368; relative viability (NCI-H520; first compound 0.8 µM): 0.359; relative viability (NCI-H520; first compound 2.53 µM): 0.375; relative viability (NCI-H520; first compound 8 µM): 0.35; relative viability (H3255; first compound 0.253 µM): 0.556; relative viability (H3255; first compound 0.8 µM): 0.579; relative viability (H3255; first compound 2.53 µM): 0.602; relative viability (H3255; first compound 8 µM): 0.614; relative viability (NCI-H1650; first compound 0.253 µM): 0.681; relative viability (NCI-H1650; first compound 0.8 µM): 0.712; relative viability (NCI-H1650; first compound 2.53 µM): 0.945; relative viability (NCI-H1650; first compound 8 µM): 0.933; relative viability (NCI-H650; first compound 0.253 µM): 0.384; relative viability (NCI-H650; first compound 0.8 µM): 0.294; relative viability (NCI-H650; first compound 2.53 µM): 0.544; relative viability (NCI-H650; first compound 8 µM): 0.369; relative viability (NCI-H1792; first compound 0.253 µM): 0.609; relative viability (NCI-H1792; first compound 0.8 µM): 0.378; relative viability (NCI-H1792; first compound 2.53 µM): 0.588; relative viability (NCI-H1792; first compound 8 µM): 0.485; relative viability (NCI-H1993; first compound 0.253 µM): 0.897; relative viability (NCI-H1993; first compound 0.8 µM): 1.42; relative viability (NCI-H1993; first compound 2.53 µM): 1.09; relative viability (NCI-H1993; first compound 8 µM): 0.889; relative viability (NCI-H1395; first compound 0.253 µM): 0.453; relative viability (NCI-H1395; first compound 2.53 µM): 0.523; relative viability (NCI-H1395; first compound 8 µM): 0.458; relative viability (NCI-H2009; first compound 0.253 µM): 0.623; relative viability (NCI-H2009; first compound 0.8 µM): 0.654; relative viability (NCI-H2009; first compound 2.53 µM): 0.827; relative viability (NCI-H2009; first compound 8 µM): 0.693; relative viability (NCI-H1755; first compound 0.253 µM): 0.86; relative viability (NCI-H1755; first compound 0.8 µM): 0.861; relative viability (NCI-H1755; first compound 2.53 µM): 0.899; relative viability (NCI-H1755; first compound 8 µM): 0.777; relative viability (SK-LU-1; first compound 0.253 µM): 0.409; relative viability (SK-LU-1; first compound 0.8 µM): 0.542; relative viability (SK-LU-1; first compound 2.53 µM): 0.615; relative viability (SK-LU-1; first compound 8 µM): 0.392; relative viability (PC-3 [JPC-3]; first compound 0.253 µM): 1.12; relative viability (PC-3 [JPC-3]; first compound 0.8 µM): 1.1; relative viability (PC-3 [JPC-3]; first compound 2.53 µM): 1.32; relative viability (PC-3 [JPC-3]; first compound 8 µM): 1.38; relative viability (A-427; first compound 0.253 µM): 0.713; relative viability (A-427; first compound 0.8 µM): 0.504; relative viability (A-427; first compound 2.53 µM): 0.838; relative viability (A-427; first compound 8 µM): 0.79; relative viability (NCI-H727; first compound 0.253 µM): 0.732; relative viability (NCI-H727; first compound 0.8 µM): 0.706; relative viability (NCI-H727; first compound 2.53 µM): 0.633; relative viability (NCI-H727; first compound 8 µM): 0.7; relative viability (LC-2-ad; first compound 0.253 µM): 0.359; relative viability (LC-2-ad; first compound 0.8 µM): 0.716; relative viability (LC-2-ad; first compound 2.53 µM): 0.777; relative viability (LC-2-ad; first compound 8 µM): 0.782; relative viability (NCI-H2085; first compound 0.253 µM): 0.793; relative viability (NCI-H2085; first compound 0.8 µM): 0.796; relative viability (NCI-H2085; first compound 2.53 µM): 0.841; relative viability (NCI-H2085; first compound 8 µM): 0.752; relative viability (NCI-H647; first compound 0.253 µM): 0.525; relative viability (NCI-H647; first compound 0.8 µM): 0.543; relative viability (NCI-H647; first compound 2.53 µM): 0.65; relative viability (NCI-H647; first compound 8 µM): 0.566; relative viability (LCLC-97TM1; first compound 0.253 µM): 0.403; relative viability (LCLC-97TM1; first compound 0.8 µM): 0.38; relative viability (LCLC-97TM1; first compound 2.53 µM): 0.433; relative viability (LCLC-97TM1; first compound 8 µM): 0.36; relative viability (NCI-H661; first compound 0.253 µM): 0.725; relative viability (NCI-H661; first compound 0.8 µM): 0.756; relative viability (NCI-H661; first compound 2.53 µM): 0.735; relative viability (NCI-H661; first compound 8 µM): 0.704
